Source: patent US8906944B2, “Compounds as tyrosine kinase modulators” (Allergan, Inc., priority 2009, dated 2014)

Columns and labels:
Type in all cases: biochemical
[1] = target: VEGFR1 (Homo sapiens, UniProt P17948); experiment: VEGFR1 enzyme assay; details: Table IV, amide or urea linker
[2] = target: PDGFβ (Homo sapiens, UniProt P09619); experiment: PDGFβ enzyme assay; details: Table IV, amide or urea linker
[3] = target: T1, human VEGF receptor (VEGFR-2) (Homo sapiens, UniProt P35968); experiment: VEGFR2 kinase assay; details: His-VEGFR-2 cytoplasmic domain, 3.6 μM ATP; Table IV, amide or urea linker; read-out: VEGFR2 Enzyme IC50
T1 construct: The cytoplasmic domain of the human VEGF receptor (VEGFR-2) was expressed; His; made in house; host or cells: insect cells (baculovirus)
T1 sequence (P35968 786-1356 limits assumed): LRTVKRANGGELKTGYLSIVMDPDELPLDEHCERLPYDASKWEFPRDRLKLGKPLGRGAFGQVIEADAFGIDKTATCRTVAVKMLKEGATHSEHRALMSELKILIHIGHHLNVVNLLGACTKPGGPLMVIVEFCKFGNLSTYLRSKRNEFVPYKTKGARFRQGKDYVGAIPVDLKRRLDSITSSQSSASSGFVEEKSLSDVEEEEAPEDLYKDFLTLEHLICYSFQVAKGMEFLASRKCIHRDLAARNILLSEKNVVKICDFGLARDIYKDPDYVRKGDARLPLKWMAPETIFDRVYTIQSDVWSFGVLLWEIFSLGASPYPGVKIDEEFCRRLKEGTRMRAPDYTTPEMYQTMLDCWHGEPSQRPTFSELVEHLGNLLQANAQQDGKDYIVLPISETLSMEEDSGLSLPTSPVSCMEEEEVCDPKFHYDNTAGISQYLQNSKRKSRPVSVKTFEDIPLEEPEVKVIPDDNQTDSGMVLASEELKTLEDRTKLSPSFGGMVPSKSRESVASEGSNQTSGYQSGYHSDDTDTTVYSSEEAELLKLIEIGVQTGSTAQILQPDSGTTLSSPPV
Protocol: The cytoplasmic domain of the human VEGF receptor (VEGFR-2) was expressed as a Histidine-tagged fusion protein following infection of insect cells using an H is engineered baculovirus. […] Kinase assays were performed in 96 well microtiter plates that were coated overnight with 30 µg of poly-Glu-Tyr (4:1) in 10 mM Phosphate Buffered Saline (PBS), pH 7.2-7.4. The plates were incubated with 1% BSA and then washed four times with PBS prior to starting the reaction. Reactions were carried out in 120 µL reaction volumes containing 3.6 µM ATP in kinase buffer (50 mM Hepes buffer pH 7.4, 20 mM MgCl2, 0.1 mM MnCl2 and 0.2 mM Na3 VO4). […] Reactions were initiated by the addition 0.5 ng of purified protein. Following a ten minute incubation at 25 degree. […] IC50 values for compound inhibition were calculated directly from graphs of optical density (arbitrary units) versus compound concentration following subtraction of blank values.

Chain of VEGFR1 (P17948 27-1338, species assumed): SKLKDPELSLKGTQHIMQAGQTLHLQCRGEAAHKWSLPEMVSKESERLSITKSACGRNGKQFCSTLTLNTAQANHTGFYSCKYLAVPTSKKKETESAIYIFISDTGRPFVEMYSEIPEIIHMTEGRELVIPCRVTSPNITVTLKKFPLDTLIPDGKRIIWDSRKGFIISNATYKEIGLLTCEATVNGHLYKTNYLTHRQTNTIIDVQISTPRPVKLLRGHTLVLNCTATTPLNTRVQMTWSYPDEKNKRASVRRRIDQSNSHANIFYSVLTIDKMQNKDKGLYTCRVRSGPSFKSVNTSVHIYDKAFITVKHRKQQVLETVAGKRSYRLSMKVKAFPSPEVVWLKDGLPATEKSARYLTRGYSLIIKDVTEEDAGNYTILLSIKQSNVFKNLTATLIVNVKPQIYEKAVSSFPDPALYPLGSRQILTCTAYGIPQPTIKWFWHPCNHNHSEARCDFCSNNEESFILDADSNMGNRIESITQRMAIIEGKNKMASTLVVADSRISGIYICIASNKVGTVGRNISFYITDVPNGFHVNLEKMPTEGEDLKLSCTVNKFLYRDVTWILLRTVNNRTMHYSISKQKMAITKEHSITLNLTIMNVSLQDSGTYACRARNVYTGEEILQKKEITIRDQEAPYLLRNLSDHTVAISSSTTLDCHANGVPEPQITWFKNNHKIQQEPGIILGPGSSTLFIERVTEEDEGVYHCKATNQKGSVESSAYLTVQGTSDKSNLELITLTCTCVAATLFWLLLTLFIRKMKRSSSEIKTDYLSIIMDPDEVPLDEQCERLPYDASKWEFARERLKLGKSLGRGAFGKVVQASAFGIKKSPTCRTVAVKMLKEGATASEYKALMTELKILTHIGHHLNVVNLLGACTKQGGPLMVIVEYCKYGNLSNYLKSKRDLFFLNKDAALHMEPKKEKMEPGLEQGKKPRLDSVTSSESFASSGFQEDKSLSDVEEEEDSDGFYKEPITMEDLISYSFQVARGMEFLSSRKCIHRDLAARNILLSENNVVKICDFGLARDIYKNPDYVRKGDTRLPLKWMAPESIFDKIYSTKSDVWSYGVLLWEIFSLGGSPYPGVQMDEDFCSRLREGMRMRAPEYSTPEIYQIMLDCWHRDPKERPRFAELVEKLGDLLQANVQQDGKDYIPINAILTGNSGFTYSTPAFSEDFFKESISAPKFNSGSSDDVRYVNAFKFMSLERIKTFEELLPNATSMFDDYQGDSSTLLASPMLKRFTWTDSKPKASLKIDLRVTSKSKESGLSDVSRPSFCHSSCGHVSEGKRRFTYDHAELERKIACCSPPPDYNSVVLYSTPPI
Chain of PDGFβ (P09619 33-1106): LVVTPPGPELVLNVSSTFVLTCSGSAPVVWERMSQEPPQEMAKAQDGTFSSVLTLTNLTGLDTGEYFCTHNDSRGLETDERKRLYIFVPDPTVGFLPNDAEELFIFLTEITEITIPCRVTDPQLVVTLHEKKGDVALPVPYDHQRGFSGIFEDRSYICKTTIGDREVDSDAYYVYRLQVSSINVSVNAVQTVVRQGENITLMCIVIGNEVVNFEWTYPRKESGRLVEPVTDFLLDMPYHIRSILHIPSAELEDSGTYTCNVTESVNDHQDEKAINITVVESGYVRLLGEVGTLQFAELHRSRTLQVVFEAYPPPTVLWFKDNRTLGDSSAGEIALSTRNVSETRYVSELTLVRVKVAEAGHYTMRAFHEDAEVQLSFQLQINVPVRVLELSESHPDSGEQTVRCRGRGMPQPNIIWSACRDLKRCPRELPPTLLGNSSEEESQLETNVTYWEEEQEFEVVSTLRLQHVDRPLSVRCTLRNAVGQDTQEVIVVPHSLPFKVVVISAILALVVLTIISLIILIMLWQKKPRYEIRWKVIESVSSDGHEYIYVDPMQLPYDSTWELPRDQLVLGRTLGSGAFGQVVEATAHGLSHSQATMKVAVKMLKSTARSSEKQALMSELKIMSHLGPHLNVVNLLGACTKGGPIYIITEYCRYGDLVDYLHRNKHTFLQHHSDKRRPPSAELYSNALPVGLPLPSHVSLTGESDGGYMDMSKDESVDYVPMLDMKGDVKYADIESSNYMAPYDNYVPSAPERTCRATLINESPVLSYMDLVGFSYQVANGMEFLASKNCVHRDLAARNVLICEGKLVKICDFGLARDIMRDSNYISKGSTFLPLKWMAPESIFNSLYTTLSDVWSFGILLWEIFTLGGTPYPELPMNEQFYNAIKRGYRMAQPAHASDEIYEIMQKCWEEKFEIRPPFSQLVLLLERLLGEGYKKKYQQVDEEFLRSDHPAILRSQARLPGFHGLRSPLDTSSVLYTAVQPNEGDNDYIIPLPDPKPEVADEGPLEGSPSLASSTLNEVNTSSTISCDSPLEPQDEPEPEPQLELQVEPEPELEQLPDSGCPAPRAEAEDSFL

Row | SMILES | IC50 [1] | IC50 [2] | IC50 [3]
1 | Cc1ccc(F)c(NC(=O)c2ccc(F)c(Oc3ccnc(-c4cc(C(=O)N[C@@H](CCC(=O)O)C(=O)O)c[nH]4)c3)c2)c1 (stereo in doubt) [Example 248, 2-[({5-[4-(2-fluoro-5-{[(2-fluoro-5-methylphenyl)amino]carbonyl}phenoxy)pyridin-2-yl]-1H-pyrrol-3-yl}carbonyl)amino]pentanedioic acid] | 28 nM | 157 nM | 56 nM
2 | Cc1ccc(F)c(NC(=O)Nc2ccc(Oc3ccnc(-c4cc(C(=O)NCCCc5nn[nH]n5)c[nH]4)c3)cc2)c1 [Example 149, 5-{4-[4-({[(2-fluoro-5-methylphenyl)amino]carbonyl}amino)phenoxy]pyridin-2-yl}-N-[3-(2H-tetrazol-5-yl)propyl]-1H-pyrrole-3-carboxamide] | 6 nM | 13 nM | 4 nM
3 | Cc1ccc(F)c(NC(=O)Nc2ccc(Oc3ccnc(-c4cc(C(=O)NCCc5nn[nH]n5)c[nH]4)c3)cc2)c1 [Example 150, 5-{4-[4-({[(2-fluoro-5-methylphenyl)amino]carbonyl}amino)phenoxy]pyridin-2-yl}-N-[2-(2H-tetrazol-5-yl)ethyl]-1H-pyrrole-3-carboxamide] | 7 nM | 16 nM | 5 nM
4 | Cc1ccc(F)c(NC(=O)Nc2ccc(Oc3ccnc(-c4cc(C(=O)NCCCN5CCCC(CO)C5)c[nH]4)c3)cc2)c1 (stereo not drawn) [Example 160, 5-{4-[4-({[(2-fluoro-5-methylphenyl)amino]carbonyl}amino)phenoxy]pyridin-2-yl}-N-{3-[3-(hydroxymethyl)piperidin-1-yl]propyl}-1H-pyrrole-3-carboxamide] | 7 nM | 19 nM | 9 nM
5 | Cc1ccc(F)c(NC(=O)Nc2ccc(Oc3ccnc(-c4cc(C(=O)NCCCCC(=O)O)c[nH]4)c3)cc2)c1 [Example 166, 5-{[(5-{4-[4-({[(2-fluoro-5-methylphenyl)amino]carbonyl}amino)phenoxy]pyridin-2-yl}-1H-pyrrol-3-yl)carbonyl]amino}pentanoic acid] | 6 nM | 11 nM | 5 nM
6 | COC(=O)CNCCCNC(=O)c1c[nH]c(-c2cc(Oc3cc(C(=O)Nc4cc(C)ccc4F)ccc3F)ccn2)c1 [Example 180, methyl ({3-[({5-[4-(2-fluoro-5-{[(2-fluoro-5-methylphenyl)amino]carbonyl}phenoxy)pyridin-2-yl]-1H-pyrrol-3-yl}carbonyl)amino]propyl}amino)acetate] | 32 nM | 53 nM | 14 nM
7 | COC(=O)CNCCNC(=O)c1c[nH]c(-c2cc(Oc3cc(C(=O)Nc4cc(C)ccc4F)ccc3F)ccn2)c1 [Example 181, methyl ({2-[({5-[4-(2-fluoro-5-{[(2-fluoro-5-methylphenyl)amino]carbonyl}phenoxy)pyridin-2-yl]-1H-pyrrol-3-yl}carbonyl)amino]ethyl}amino)acetate] | 65 nM | 132 nM | 22 nM
8 | Cc1ccc(F)c(NC(=O)c2ccc(F)c(Oc3ccnc(-c4cc(C(=O)NCCCN5CCC(O)CC5)c[nH]4)c3)c2)c1 [Example 184, 5-[4-(2-fluoro-5-{[(2-fluoro-5-methylphenyl)amino]carbonyl}phenoxy)pyridin-2-yl]-N-[3-(4-hydroxypiperidin-1-yl)propyl]-1H-pyrrole-3-carboxamide] | 51 nM | 49 nM | 19 nM
9 | Cc1ccc(F)c(NC(=O)c2ccc(F)c(Oc3ccnc(-c4cc(C(=O)NCCCN5CCCC5)c[nH]4)c3)c2)c1 [Example 187, 5-[4-(2-fluoro-5-{[(2-fluoro-5-methylphenyl)amino]carbonyl}phenoxy)pyridin-2-yl]-N-(3-pyrrolidin-1-ylpropyl)-1H-pyrrole-3-carboxamide] | 27 nM | 98 nM | 15 nM
10 | Cc1ccc(F)c(NC(=O)Nc2ccc(Oc3ccnc(-c4cc(C(=O)NCCCN5CCCC(CO)C5)c[nH]4)c3)cc2F)c1 (stereo not drawn) [Example 205, 5-{4-[3-fluoro-4-({[(2-fluoro-5-methylphenyl)amino]carbonyl}amino)phenoxy]pyridin-2-yl}-N-{3-[3-(hydroxymethyl)piperidin-1-yl]propyl}-1H-pyrrole-3-carboxamide] | 9 nM | 15 nM | 8 nM
11 | Cc1ccc(F)c(NC(=O)Nc2ccc(Oc3ccnc(-c4cc(C(=O)NCCCN(CC(=O)O)CC(=O)O)c[nH]4)c3)cc2)c1 [Example 214, 2,2′-[(3-{[(5-{4-[4-({[(2-fluoro-5-methylphenyl)amino]carbonyl}amino)phenoxy]pyridin-2-yl}-1H-pyrrol-3-yl)carbonyl]amino}propyl)imino]diacetic acid] | 8 nM | 23 nM | 22 nM
12 | Cc1ccc(F)c(NC(=O)Nc2ccc(Oc3ccnc(-c4cc(C(=O)N5CCN(CC(=O)O)CC5)c[nH]4)c3)cc2F)c1 [Example 218, {4-[(5-{4-[3-fluoro-4-({[(2-fluoro-5-methylphenyl)amino]carbonyl}amino)phenoxy]pyridin-2-yl}-1H-pyrrol-3-yl)carbonyl]piperazin-1-yl}acetic acid] | 9 nM | 16 nM | 5 nM
13 | COC(=O)C1CCCN1CCCNC(=O)c1c[nH]c(-c2cc(Oc3ccc(NC(=O)Nc4cc(C)ccc4F)c(F)c3)ccn2)c1 (stereo not drawn) [Example 228, methyl 1-(3-{[(5-{4-[3-fluoro-4-({[(2-fluoro-5-methylphenyl)amino]carbonyl}amino)phenoxy]pyridin-2-yl}-1H-pyrrol-3-yl)carbonyl]amino}propyl)pyrrolidine-2-carboxylate] | 8 nM | 9 nM | 11 nM

The remaining lines, values ahead:

Row | IC50 [1] | IC50 [2] | IC50 [3] | SMILES
14 | 9 nM | 19 nM | 7 nM | Cc1ccc(F)c(NC(=O)Nc2ccc(Oc3ccnc(-c4cc(C(=O)NCCCN(C)CC(O)CO)c[nH]4)c3)cc2F)c1 (stereo not drawn) [Example 195, N-{3-[(2,3-dihydroxypropyl)(methyl)amino]propyl}-5-{4-[3-fluoro-4-({[(2-fluoro-5-methylphenyl)amino]carbonyl}amino)phenoxy]pyridin-2-yl}-1H-pyrrole-3-carboxamide]
15 | 10 nM | 19 nM | 8 nM | COC(=O)CNCCCNC(=O)c1c[nH]c(-c2cc(Oc3ccc(NC(=O)Nc4cc(C)ccc4F)c(F)c3)ccn2)c1 [Example 196, methyl [(3-{[(5-{4-[3-fluoro-4-({[(2-fluoro-5-methylphenyl)amino]carbonyl}amino)phenoxy]pyridin-2-yl}-1H-pyrrol-3-yl)carbonyl]amino}propyl)amino]acetate]
16 | 12 nM | 17 nM | 9 nM | Cc1ccc(F)c(NC(=O)Nc2ccc(Oc3ccnc(-c4cc(C(=O)NCCCN5CCOC(CO)C5)c[nH]4)c3)cc2F)c1 (stereo not drawn) [Example 206, 5-{4-[3-fluoro-4-({[(2-fluoro-5-methylphenyl)amino]carbonyl}amino)phenoxy]pyridin-2-yl}-N-{3-[2-(hydroxymethyl)morpholin-4-yl]propyl}-1H-pyrrole-3-carboxamide]
17 | 10 nM | 17 nM | 7 nM | Cc1ccc(F)c(NC(=O)Nc2ccc(Oc3ccnc(-c4cc(C(=O)NCCCN5CCC(O)CC5)c[nH]4)c3)cc2F)c1 [Example 207, 5-{4-[3-fluoro-4-({[(2-fluoro-5-methylphenyl)amino]carbonyl}amino)phenoxy]pyridin-2-yl}-N-[3-(4-hydroxypiperidin-1-yl)propyl]-1H-pyrrole-3-carboxamide]
18 | 8 nM | 13 nM | 12 nM | Cc1ccc(F)c(NC(=O)Nc2ccc(Oc3ccnc(-c4cc(C(=O)NCC(=O)O)c[nH]4)c3)cc2F)c1 [Example 210, {[(5-{4-[3-fluoro-4-({[(2-fluoro-5-methylphenyl)amino]carbonyl}amino)phenoxy]pyridin-2-yl}-1H-pyrrol-3-yl)carbonyl]amino}acetic acid]
19 | 11 nM | 23 nM | 13 nM | Cc1ccc(F)c(NC(=O)Nc2ccc(Oc3ccnc(-c4cc(C(=O)NCCCN5CCCC5C(=O)O)c[nH]4)c3)cc2F)c1 (stereo not drawn) [Example 220, 1-(3-{[(5-{4-[3-fluoro-4-({[(2-fluoro-5-methylphenyl)amino]carbonyl}amino)phenoxy]pyridin-2-yl}-1H-pyrrol-3-yl)carbonyl]amino}propyl)pyrrolidine-2-carboxylic acid]
20 | 15 nM | 29 nM | 9 nM | Cc1ccc(F)c(NC(=O)Nc2ccc(Oc3ccnc(-c4cc(C(=O)NCCN)c[nH]4)c3)cc2F)c1 [Example 222, N-(2-aminoethyl)-5-{4-[3-fluoro-4-({[(2-fluoro-5-methylphenyl)amino]carbonyl}amino)phenoxy]pyridin-2-yl}-1H-pyrrole-3-carboxamide]
21 | 12 nM | 16 nM | 13 nM | Cc1ccc(F)c(NC(=O)Nc2ccc(Oc3ccnc(-c4cc(C(=O)NCCCN)c[nH]4)c3)cc2F)c1 [Example 223, N-(3-aminopropyl)-5-{4-[3-fluoro-4-({[(2-fluoro-5-methylphenyl)amino]carbonyl}amino)phenoxy]pyridin-2-yl}-1H-pyrrole-3-carboxamide]
